From patent US9113629B2, “4-amino-6-(4-substituted-phenyl)-picolinates and 6-amino-2-(4-substituted-phenyl)-pyrimidine-4-carboxylates and their use as herbicides” (DOW AGROSCIENCES LLC, priority 2013, dated 2015)
Like-named read-outs stand apart in the source and are kept apart here.

Columns and labels:
[1] = tested on: Key Broadleaf Weed and Crop Species; assay: Post-emergent Test II herbicidal activity (Table 5); assay type: in vivo; conditions: post-emergence, 336 h, post-emergent, 14 days after application; for pest or weed control at 70 g/ha: application rate 70 g ai/ha; for pest or weed control at 140 g/ha: application rate 140 g ai/ha
In short: (§1)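 Test species were raised 7–21 d under greenhouse conditions until reaching the first or second true leaf, sprayed with formulated compound at 187 L/ha, and kept subirrigated to avoid wash-off. Fourteen days later, damage was rated visually on a 0–100% scale against untreated plants.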

[2] = tested on: Key Grass and Sedge Weeds as well as Grass Crops; assay: Post-emergent Test II herbicidal activity (Table 6); assay type: in vivo; conditions: post-emergence, 336 h; for pest or weed control at 70 g/ha: application rate 70 g ai/ha; for pest or weed control at 140 g/ha: application rate 140 g ai/ha
In short: as §1

[3] = ABUTH: velvetleaf (Abutilon theophrasti), read-out: Visual Growth Reduction (%) 14 Days After Application, ABUTH
[4] = AMARE: redroot pigweed (Amaranthus retroflexus), read-out: Visual Growth Reduction (%) 14 Days After Application, AMARE
[5] = BRSNN: oilseed-rape, canola (Brassica napus), read-out: Visual Growth Reduction (%) 14 Days After Application, BRSNN
[6] = CHEAL: lambsquarters (Chenopodium album), read-out: Visual Growth Reduction (%) 14 Days After Application, CHEAL
[7] = EPHHL: wild poinsettia (Euphorbia heterophylla), read-out: Visual Growth Reduction (%) 14 Days After Application, EPHHL
[8] = HELAN: sunflower (Helianthus annuus), read-out: Visual Growth Reduction (%) 14 Days After Application, HELAN
[9] = VIOTR: wild pansy (Viola tricolor), read-out: Visual Growth Reduction (%) 14 Days After Application, VIOTR
[10] = CYPES: yellow nutsedge (Cyperus esculentus), read-out: Visual Growth Reduction (%) 14 Days After Application, CYPES
[11] = DIGSA: crabgrass (Digitaria sanguinalis), read-out: Visual Growth Reduction (%) 14 Days After Application, DIGSA
[12] = ECHCG: barnyardgrass (Echinochloa crus-galli), read-out: Visual Growth Reduction (%) 14 Days After Application, ECHCG
[13] = ORYSA: rice (Oryza sativa), read-out: Visual Growth Reduction (%) 14 Days After Application, ORYSA
[14] = SETFA: giant foxtail (Setaria faberi), read-out: Visual Growth Reduction (%) 14 Days After Application, SETFA
[15] = SORVU: grain sorghum (Sorghum vulgare), read-out: Visual Growth Reduction (%) 14 Days After Application, SORVU
[16] = TRZSS (wheat, Triticum aestivum), read-out: Visual Growth Reduction (%) 14 Days After Application, TRZSS
[17] = ZEAMX: maize, corn (Zea mays), read-out: Visual Growth Reduction (%) 14 Days After Application, ZEAMX

SMILES | melting point [°C] | pest or weed control at 70 g/ha [1, 3] [%] | pest or weed control at 140 g/ha [1, 3] [%] | pest or weed control at 70 g/ha [1, 4] [%] | pest or weed control at 140 g/ha [1, 4] [%] | pest or weed control at 70 g/ha [1, 5] [%] | pest or weed control at 140 g/ha [1, 5] [%] | pest or weed control at 70 g/ha [1, 6] [%] | pest or weed control at 140 g/ha [1, 6] [%] | pest or weed control at 70 g/ha [1, 7] [%] | pest or weed control at 140 g/ha [1, 7] [%] | pest or weed control at 70 g/ha [1, 8] [%] | pest or weed control at 140 g/ha [1, 8] [%] | pest or weed control at 70 g/ha [1, 9] [%] | pest or weed control at 140 g/ha [1, 9] [%] | pest or weed control at 70 g/ha [2, 10] [%] | pest or weed control at 140 g/ha [2, 10] [%] | pest or weed control at 70 g/ha [2, 11] [%] | pest or weed control at 140 g/ha [2, 11] [%] | pest or weed control at 70 g/ha [2, 12] [%] | further results
COC(=O)c1nc(-c2cc(F)c(C)cc2F)nc(N)c1OC [Compound 185] | 163.4 to 164.8 | 30 to 44 | 45 to 59 | 0 to 29 | 0 to 29 | 30 to 44 | 45 to 59 | 60 to 74 | 95 to 100 | 75 to 84 | 85 to 94 | 75 to 84 | 85 to 94 | 0 to 29 | 0 to 29 | 0 to 29 | 0 to 29 | 0 to 29 | 0 to 29 | 0 to 29 | pest or weed control at 140 g/ha [2, 12]: 0 to 29%; pest or weed control at 70 g/ha [2, 13]: 0 to 29%; pest or weed control at 140 g/ha [2, 13]: 0 to 29%; pest or weed control at 70 g/ha [2, 14]: 0 to 29%; pest or weed control at 140 g/ha [2, 14]: 0 to 29%; pest or weed control at 70 g/ha [2, 15]: 0 to 29%; pest or weed control at 140 g/ha [2, 15]: 0 to 29%; pest or weed control at 70 g/ha [2, 16]: 0 to 29%; pest or weed control at 140 g/ha [2, 16]: 0 to 29%; pest or weed control at 70 g/ha [2, 17]: 0 to 29%; pest or weed control at 140 g/ha [2, 17]: 0 to 29%
COc1c(N)nc(-c2cc(F)c(C(F)F)cc2F)nc1C(=O)O [Compound 203] | 143.7 to 145.5 | 30 to 44 | 30 to 44 | 45 to 59 | 95 to 100 | 30 to 44 | 45 to 59 | 85 to 94 | 95 to 100 | 95 to 100 | 95 to 100 | 60 to 74 | 75 to 84 | 0 to 29 | 30 to 44 | 0 to 29 | 75 to 84 | 0 to 29 | 0 to 29 | 0 to 29 | pest or weed control at 140 g/ha [2, 12]: 0 to 29%; pest or weed control at 70 g/ha [2, 13]: 0 to 29%; pest or weed control at 140 g/ha [2, 13]: 0 to 29%; pest or weed control at 70 g/ha [2, 14]: 0 to 29%; pest or weed control at 140 g/ha [2, 14]: 75 to 84%; pest or weed control at 70 g/ha [2, 15]: 0 to 29%; pest or weed control at 140 g/ha [2, 15]: 0 to 29%; pest or weed control at 70 g/ha [2, 16]: 0 to 29%; pest or weed control at 140 g/ha [2, 16]: 0 to 29%; pest or weed control at 70 g/ha [2, 17]: 0 to 29%; pest or weed control at 140 g/ha [2, 17]: 0 to 29%
